Test results from PubChem BioAssay (NCI).
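Protocol summary: plate cells (96-well), add compound at 5 concentrations, incubate 48 h, interpolate endpoints linearly. Abbreviation: GI50, concentration required for 50% inhibition of growth. The concentration for full growth arrest is given as TGI.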

Columns and labels:
Assay in all cases: NCI tumour cell line growth inhibition, 48 h
[1] = tested on: OVCAR-5 ovarian
[2] = tested on: UO-31 renal
[3] = tested on: RPMI-8226 leukemia
[4] = tested on: CCRF-CEM leukemia
[5] = tested on: SK-MEL-28 melanoma
[6] = tested on: MCF7 breast
[7] = tested on: SNB-19 CNS
[8] = tested on: BT-549 breast
[9] = tested on: NCI-H522 lung
[10] = tested on: HS 578T breast

Row | SMILES | TGI [1] | TGI [2] | TGI [3] | TGI [4] | TGI [5] | TGI [6] | TGI [7] | TGI [8] | TGI [9] | TGI [10] | GI50 [1] | GI50 [2] | GI50 [3] | GI50 [4] | GI50 [5] | GI50 [7] | GI50 [8] | GI50 [9] | GI50 [10] | GI50 [6]
1 | O=C(O)c1ccc(NC(c2ccccc2)c2ccc3cccnc3c2O)cc1 (stereo unspecified) | > 100 µM | 34.6 µM | 28 µM | 6.05 µM | > 100 µM | > 80.7 µM | > 100 µM | > 74 µM | 55.8 µM | > 73.7 µM | – | – | – | – | – | – | – | – | – | –
2 | O=C1CC(=O)N(c2ccccc2)N1/C(=C/c1ccccc1)c1ccccc1 | > 100 µM | 29.2 µM | 34.5 µM | 3.57 µM | 26 µM | 57.3 µM | 43.6 µM | 50.2 µM | – | 45.4 µM | – | – | – | – | – | – | – | – | – | –
3 | COc1ccc(Nc2[nH]c(C(C)=O)c(N)c2C(=S)Nc2ccccc2)cc1 | > 100 µM | > 100 µM | – | > 100 µM | > 100 µM | 68.6 µM | > 100 µM | > 100 µM | > 100 µM | > 100 µM | – | – | – | – | – | – | – | – | – | –
4 | O=C(NS(=O)(=O)Nc1ccc(Cl)cc1)OCc1ccc(Cl)cc1Cl | 70.3 µM | 44.2 µM | > 100 µM | > 100 µM | 97.5 µM | 31.9 µM | 48.4 µM | 82.3 µM | – | 37.5 µM | – | – | – | – | – | – | – | – | – | –
5 | CCC(=O)C(c1ccccc1)c1ccccn1 (stereo unspecified) | > 100 µM | > 100 µM | > 100 µM | > 100 µM | > 100 µM | > 100 µM | > 100 µM | > 100 µM | > 100 µM | > 100 µM | – | – | – | – | – | – | – | – | – | –
6 | C=CC(=O)Nc1cccc(-c2nc(SC)nc(Nc3ccccc3OC)c2C#N)c1 | 5.92 µM | 3.18 µM | > 100 µM | > 100 µM | 5.71 µM | – | 6.51 µM | 38.5 µM | 6.53 µM | 6.61 µM | 2.26 µM | 1.42 µM | 3.11 µM | 3.07 µM | 2.29 µM | 2.31 µM | 3.19 µM | 2.04 µM | 2.34 µM | –
7 | C/C(=N\NC(=S)NC(C)C)c1nc2ncccc2[nH]1 | > 100 µM | 44.9 µM | > 100 µM | > 100 µM | > 100 µM | > 100 µM | > 91.6 µM | 58.9 µM | > 76.3 µM | 69.7 µM | – | – | – | – | – | – | – | – | – | –
8 | Cc1[nH]c(/C=C2\C(=O)Nc3ccc(S(=O)(=O)Cc4c(Cl)cccc4Cl)cc32)c(C)c1C(=O)N1CCC[C@@H]1CN1CCCC1 | 3.72 µM | 3.07 µM | – | – | 2.75 µM | 3.64 µM | 6.74 µM | 83.1 µM | 47.7 µM | 43.9 µM | 1.95 µM | 1.41 µM | – | – | 1.4 µM | 2.41 µM | 14.1 µM | 19.7 µM | 7.72 µM | 1.69 µM
9 | Nc1n[nH]c(=O)[nH]1 | > 100 µM | > 100 µM | > 100 µM | > 100 µM | > 100 µM | > 100 µM | > 100 µM | – | > 100 µM | – | – | – | – | – | – | – | – | – | – | –
10 | CSC1=Nc2ccccc2N(C)c2c1c(-c1ccccc1)nn2C | > 100 µM | – | 37.1 µM | 53.1 µM | > 100 µM | > 100 µM | – | > 100 µM | > 100 µM | > 100 µM | – | – | – | – | – | – | – | – | – | –
11 | CCn1cc(C(c2ccc(Cl)cc2)n2ccnc2)c2cc(Br)ccc21 (stereo unspecified) | 25.5 µM | 20.1 µM | 75 µM | – | – | 29.8 µM | 28.3 µM | 31.9 µM | – | 47.2 µM | – | – | – | – | – | – | – | – | – | –
12 | N#Cc1c(NC(=S)NC(=O)c2ccccc2)nc2c(c1-c1ccccc1)CCC2 | > 100 µM | > 100 µM | > 100 µM | > 100 µM | – | – | > 100 µM | > 100 µM | – | > 100 µM | – | – | – | – | – | – | – | – | – | –
13 | CC(C)CC(N)C(=O)OCN1C(=O)C2C3C=CC(C2C1=O)C1C2C(=O)N(COC(=O)C(N)CC(C)C)C(=O)C2C31 (stereo unspecified) | > 100 µM | > 100 µM | > 78.6 µM | > 100 µM | > 100 µM | – | > 100 µM | – | > 100 µM | – | – | – | – | – | – | – | – | – | – | –
14 | Nc1ccccc1Nc1ccccc1C(=O)[O-].Nc1ccccc1Nc1ccccc1C(=O)[O-].[Cu+2] | > 100 µM | > 100 µM | > 100 µM | > 100 µM | > 100 µM | – | > 100 µM | – | > 100 µM | – | – | – | – | – | – | – | – | – | – | –
15 | O=C(Nc1ccc(I)cc1C(=O)NCCO)c1cccs1 | > 100 µM | > 100 µM | > 100 µM | > 100 µM | > 100 µM | > 100 µM | > 100 µM | > 100 µM | > 100 µM | – | – | – | – | – | – | – | – | – | – | –
16 | Cc1ccc(-c2cc(N)n(-c3nc4c([nH]3)c(=O)n(C)c(=O)n4C)n2)cc1 | > 100 µM | 73.1 µM | > 100 µM | > 100 µM | 94.8 µM | > 100 µM | > 100 µM | 32.9 µM | > 100 µM | > 100 µM | – | – | – | – | – | – | – | – | – | –
17 | OCC1CCCC(n2cnc3c(=S)nc[nH]c32)O1 (stereo unspecified) | > 100 µM | > 100 µM | > 100 µM | – | > 100 µM | > 100 µM | > 100 µM | > 100 µM | > 100 µM | > 100 µM | – | – | – | – | – | – | – | – | – | –
18 | COC1OC(=O)[C@H]2O[N+]([O-])=C(C)[C@@H]12 (stereo partly specified) | > 100 µM | > 100 µM | > 100 µM | > 100 µM | > 100 µM | > 100 µM | > 100 µM | – | > 100 µM | – | – | – | – | – | – | – | – | – | – | –
